Experimental findings from paper PMC5940854, “Nitrothiophene carboxamides, a novel narrow spectrum antibacterial series: Mechanism of action and Efficacy” (Scientific Reports, 2018) are described below.

In brackets after ≈: the same amount, converted by molar mass. Like-named read-outs stand apart in the source and are kept apart here.

One assay has as its system E. coli ∆tolC JW5503-1. Put plainly: MIC, E. coli ∆tolC. Format: cell-based. As to conditions: for MIC tolC: E. coli ∆tolC; for MIC: Escherichia coli, read-out: MIC tolC. The method, then:
(§1) The inoculum used for all the experiments is derived from a single seed lot that is maintained as glycerol stocks at −80 °C and are sub cultured on LB plate for isolated colonies. Single colony of each strain is grown in M9 medium. All test compound stocks and dilutions are prepared in DMSO. Serial two-fold dilutions of compounds are prepared separately, with the concentrations ranging from 2 mg/mL to 0.015 mg/mL. To 150 µl (3–7 × 10^5 CFU/ml) of bacterial culture in 96 well microtitre plates, 3 μL compound from each of the dilutions is added to respective wells to obtain final concentrations ranging from 40 µg/mL to 0.3 µg/mL of the test compounds. Media control, culture control and appropriate reference drug controls are included. […] Growth is monitored by checking absorbance at 600 nm (A600). […] The samples from MIC and above concentrations are plated for MBC (Minimum Bactericidal Concentration). The samples are diluted 1:10 and plated on LB agar plates. […] The killing kinetics is determined by enumerating survivors at various time points following compound exposure. E. coli cells (~10^7 CFU/ml; A600 of 0.1) are treated with various concentrations (40 µg/mL to 0.3 µg/mL) of compounds in a 96-well microtitre plate. At various time intervals (0 to 8 h), 30 μl volumes of treated cultures are serially diluted and plated on LB agar plates. […] Data is expressed as the log10 CFU for each drug treatment.

The test system of the next assay is E. coli ∆acrB JW0451-2. Put plainly: MIC, E. coli ∆acrB. As to conditions: for MIC acrB: E. coli ∆acrB; for MIC: Escherichia coli, read-out: MIC acrB. The assay is classed as cell-based. As for the experimental part: as §1
Assay [1] has as its system wild-type E. coli CGSC#7636 (BW25113). Nature of the assay: MIC, wild-type E. coli. The assay is classed as cell-based. As to conditions: for MIC WT: E. coli WT BW25113; for MIC: Escherichia coli. As for the experimental part:
as §1

For the next assay, the system named is E. coli ∆nfsB. Put plainly: microbe, parasite or virus in culture. The assay is classed as cell-based. As to conditions: Escherichia coli, read-out: MIC ∆nfsB. As for the experimental part:
(§2) To assess the biological relevance of the interacting protein and establish the link between nitroreductases to the antibacterial activity of NTC compounds, single (ΔnfsA or ΔnfsB) and double knockouts (ΔnfsA & ΔnfsB) of nitroreductases were generated by phage transduction using strains from the Keio collection.
as §1
The wild-type E. coli strain BW25113 and the entire Keio collection of knockouts[22] is maintained as glycerol stocks at −80 °C in 96-well deep well blocks. […] These are sub cultured in 150 µl of LB broth (Kanamycin 50 ug/ml, except for the wild-type strain) in 96 well microtiter plates and then adapted into M9 medium with 0.4% glucose. […] Cultures of single gene knockouts that show an altered MIC as compared to that of the wild type are scored as ‘Hits’.

In the next assay the test system is E. coli ∆nfsA + ∆nfsB. Put plainly: microbe, parasite or virus in culture. The assay is classed as cell-based. As for the experimental part:
as §2, §1

The test system of another assay is E. coli ∆nfsA. Nature of the assay: microbe, parasite or virus in culture. The assay is classed as cell-based. As to conditions: Escherichia coli, read-out: MIC ∆nfsA. The method, then:
as §2, §1

The next assay addresses T1, NfsA (Escherichia coli, UniProt P17117).
T1 construct: His-tag; made in house; host or cells: E. coli BL21(DE3), pET28a (pET-nfsA)
Put plainly: Nitroreductase activity assay, NfsA. The assay is classed as biochemical, E. coli. The method, then: (§3) Enzyme reducing each of the substrates are measured by monitoring the concomitant oxidation of NADPH by NfsA and NADH by NfsB in a fluorescence based assay. The reduction in fluorescence due to the NADH oxidation (excitation 350 nm, emission 460 nm) and NADPH oxidation (excitation 340 nm, emission 485 nm) is recorded using a TECAN Infinite M200Pro spectrophotometer, in half area solid black microtiter plates. This change in fluorescence directly corelates to the reduction of the nitro-compounds in the reaction. The NfsA assays is performed by initiating the reactions with 40 μM NADPH and 10 nM NfsA in 50 mM Tris-HCl (pH 7.4), 5 mM EDTA against 20 μM substrate (5 μl of compounds/substrate dissolved in 100% DMSO) in a total reaction volume of 100 μl at 25 °C. Similarly, the NfsB assay is also performed by initiating the reactions with 40 μM NADH and 70 nM NfsB in 50 mM Tris-HCl (pH 7.4), 5 mM EDTA against 20 μM substrate in a total reaction volume of 100 μl. […] All reactions are performed in replicates of two or more and the fluorescence measurements are made at 10 second intervals for 5–10 minutes.
(§4) Low solubility of the compounds/substrates under the NfsA and NfsB assay conditions precluded determination of their Km. […] The relative fluorescence units (RFU) obtained due to NADPH (excitation 340 nm, emission 485 nm) or NADH (excitation 350 nm, emission 460 nm) oxidation of the first 90 sec reaction is used to compute the slopes using linear regression analysis on GraphPad Prism. Appropriate blank reactions are included to account for background fluorescence/quenching from each of the components such as DMSO, the compound itself and auto-oxidation of NADPH or NADH. Activity of NfsB with a known substrate such as nitrofurantoin is used as a benchmark to plot the relative activities with all the test compounds.

The next assay deals with T2, NfsB (Escherichia coli, UniProt P38489).
T2 construct: His-tag; made in house; host or cells: E. coli BL21(DE3), pET28a (pET-nfsB)
Nature of the assay: Nitroreductase activity assay, NfsB. The assay is classed as biochemical, E. coli. As for the experimental part:
as §3, §4

Where [2] appears, read: BW25113, E. coli WT BW25113, read-out: MIC WT.

T1 sequence (P17117 whole entry): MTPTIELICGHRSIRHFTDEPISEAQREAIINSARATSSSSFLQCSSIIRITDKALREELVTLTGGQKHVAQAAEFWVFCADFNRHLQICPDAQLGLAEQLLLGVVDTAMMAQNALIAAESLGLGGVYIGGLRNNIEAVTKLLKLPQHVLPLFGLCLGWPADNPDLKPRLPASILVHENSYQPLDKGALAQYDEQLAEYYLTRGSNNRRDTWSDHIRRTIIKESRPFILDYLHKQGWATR
T2 sequence (P38489 whole entry): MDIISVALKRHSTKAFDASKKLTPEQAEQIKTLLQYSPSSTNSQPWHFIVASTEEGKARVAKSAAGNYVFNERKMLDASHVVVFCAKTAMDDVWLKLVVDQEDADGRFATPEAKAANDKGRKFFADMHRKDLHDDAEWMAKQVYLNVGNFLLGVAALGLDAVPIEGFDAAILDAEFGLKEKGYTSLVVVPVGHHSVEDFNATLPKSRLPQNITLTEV

Take “5-Nitro-N-(4-(6-(trifluoromethyl)pyridin-3-yl)thiazol-2-yl)thiophene-2-carboxamide [compound 17]”: the “MIC tolC” value against E. coli ∆tolC JW5503-1 amounted to 10 µg/mL. For the same compound, the “MIC acrB” value in the assay on E. coli ∆acrB JW0451-2 amounted to 10 µg/mL. For the same compound, the “MIC WT” value in assay [1] is above 40 µg/mL.

Turning to `Cc1sc(NC(=O)c2ccc(C(F)(F)F)s2)nc1-c1ccccc1` [compound 8, N-(5-Methyl-4-phenylthiazol-2-yl)-5-(trifluoromethyl) thiophene-2-carboxamide], the MIC (with E. coli ∆tolC JW5503-1; with E. coli ∆acrB JW0451-2; in assay [1] (setting [2])) was above 40 µg/mL each time.

As to `Cc1sc(NC(=O)c2ccc([N+](=O)[O-])s2)nc1-c1ccc(F)cc1` [compound 9, N-(4-(4-Fluorophenyl)-5-methylthiazol-2-yl)-5-nitrothiophene-2-carboxamide], the figures for the MIC (with E. coli ∆tolC JW5503-1; with E. coli ∆acrB JW0451-2; in assay [1] (setting [2])) were 0.6 µg/mL (≈ 1.65 µM), 0.6 µg/mL (≈ 1.65 µM) and above 40 µg/mL, respectively.

Regarding `CN(C)Cc1sc(NC(=O)c2ccc([N+](=O)[O-])s2)nc1-c1ccc(F)cc1` [compound 10, N-(5-((dimethylamino)methyl)-4-(4-fluorophenyl)thiazol-2-yl)-5-nitro thiophene-2-carboxamide], the MIC is 2.5 µg/mL (≈ 6.15 µM) with E. coli ∆tolC JW5503-1, 2.5 µg/mL (≈ 6.15 µM) in the assay with E. coli ∆acrB JW0451-2 and above 40 µg/mL in assay [1] (setting [2]). Further, the “fold change of MIC in ∆tolC” value with E. coli ∆tolC JW5503-1 (compared to 9) is “four fold”.

Regarding `O=C(Nc1nc(-c2ccc(F)c(F)c2)cs1)c1ccc([N+](=O)[O-])s1` [compound 11, N-(4-(3,4-Difluorophenyl)thiazol-2-yl)-5-nitrothiophene-2-carboxamide], the MIC worked out at 0.15 µg/mL (≈ 0.408 µM) with E. coli ∆tolC JW5503-1, 0.3 µg/mL (≈ 0.817 µM) in the assay with E. coli ∆acrB JW0451-2 and 0.6 µg/mL (≈ 1.63 µM) in assay [1] (setting [2]).

In the case of `N#Cc1ccc(-c2csc(NC(=O)c3ccc([N+](=O)[O-])s3)n2)cc1` [compound 14, N-(4-(4-cyanophenyl)thiazol-2-yl)-5-nitrothiophene-2-carboxamide], the MIC was 20 µg/mL (≈ 56.1 µM) in the assay on E. coli ∆tolC JW5503-1; 20 µg/mL (≈ 56.1 µM) in the assay on E. coli ∆acrB JW0451-2; above 40 µg/mL in assay [1] (setting [2]); above 40 µg/mL in the assay with E. coli ∆nfsB; above 40 µg/mL with E. coli ∆nfsA + ∆nfsB (Escherichia coli, read-out: MIC ∆nfsA + ∆nfsB); above 40 µg/mL with E. coli ∆nfsA. Also, the “fold loss in MIC against ∆tolC” value in the assay with E. coli ∆tolC JW5503-1 (compared to compound 12) was above 100 fold. Also, the “MIC WT” value in assay [1] is above 40 µg/mL. The “antibacterial activity in double knockout (in words)” value with E. coli ∆nfsA + ∆nfsB (ΔnfsA and ΔnfsB double knockout strain) is “inactive”. On NfsA (20 μM compound, 40 μM NADPH, 10 nM NfsA, slope of initial velocity), the “NfsA activity (rate of compound conversion)” value is recorded as 0.20 µM/min. Moreover, the “conversion by NfsA (in words)” value on NfsA (biochemical assay) is given as “not converted”. Further, the “NfsB activity (rate of compound conversion)” value at NfsB (20 μM compound, 40 μM NADH, 70 nM NfsB, slope of initial velocity) came out at 1.31 µM/min. For the same compound, the “conversion by NfsB (in words)” value at NfsB (biochemical assay) was “not converted”.

Take `O=C(Nc1nc(-c2ccc(OC(F)(F)F)cc2)cs1)c1ccc([N+](=O)[O-])s1` [compound 16, 5-Nitro-N-(4-(4-(trifluoromethoxy)phenyl)thiazol-2-yl)thiophene-2-carboxamide]: the MIC was 0.3 µg/mL (≈ 0.722 µM) with E. coli ∆tolC JW5503-1, 1.25 µg/mL (≈ 3.01 µM) in the assay on E. coli ∆acrB JW0451-2 and 5 µg/mL (≈ 12 µM) in assay [1] (setting [2]).

On to `Cc1cc(F)ccc1-c1csc(NC(=O)c2ccc([N+](=O)[O-])s2)n1` [compound 18, N-(4-(4-fluoro-2-methylphenyl)thiazol-2-yl)-5-nitrothiophene-2-carboxamide], for which the MIC in the assay with E. coli ∆tolC JW5503-1 amounted to 0.3 µg/mL (≈ 0.826 µM); in the assay with E. coli ∆acrB JW0451-2, 0.6 µg/mL (≈ 1.65 µM); in assay [1] (setting [2]), 2.5 µg/mL (≈ 6.88 µM).

For `COc1cc(-c2csc(NC(=O)c3ccc([N+](=O)[O-])s3)n2)ccc1F` [compound 19, N-(4-(4-fluoro-3-methoxyphenyl)thiazol-2-yl)-5-nitrothiophene-2-carboxamide], the MIC in the assay on E. coli ∆tolC JW5503-1 was 0.6 µg/mL (≈ 1.58 µM); in the assay on E. coli ∆acrB JW0451-2 it was 0.3 µg/mL (≈ 0.791 µM); in assay [1] (setting [2]), 1.25 µg/mL (≈ 3.29 µM).

As to `O=C(Nc1nc(-c2ccc(Cl)c(F)c2)cs1)c1ccc([N+](=O)[O-])s1` [compound 21, N-(4-(4-Chloro-3-fluorophenyl)thiazol-2-yl)-5-nitrothiophene-2-carboxamide], the MIC in the assay on E. coli ∆tolC JW5503-1 is 2.5 µg/mL (≈ 6.51 µM); in the assay with E. coli ∆acrB JW0451-2 it was 1.25 µg/mL (≈ 3.26 µM); in assay [1] (BW25113, read-out: MIC WT) it was 1.25 µg/mL (≈ 3.26 µM).

Take `CCOc1cc(-c2csc(NC(=O)c3ccc([N+](=O)[O-])s3)n2)ccc1Cl` [compound 22, N-(4-(4-chloro-3-ethoxyphenyl)thiazol-2-yl)-5-nitrothiophene-2-carboxamide]: the MIC was 0.6 µg/mL (≈ 1.46 µM) with E. coli ∆tolC JW5503-1; 1.25 µg/mL (≈ 3.05 µM) in the assay with E. coli ∆acrB JW0451-2; 1.25 µg/mL (≈ 3.05 µM) in assay [1] (BW25113, read-out: MIC WT).

Take `COc1cc(-c2csc(NC(=O)c3ccc([N+](=O)[O-])s3)n2)ccc1C(F)(F)F` [compound 23, N-(4-(3-methoxy-4-(trifluoromethyl)phenyl)thiazol-2-yl)-5-nitrothiophene-2-carboxamide]: the results for the MIC (with E. coli ∆tolC JW5503-1; with E. coli ∆acrB JW0451-2; in assay [1] (setting [2])) were 1.25 µg/mL (≈ 2.91 µM), 2.5 µg/mL (≈ 5.82 µM) and 2.5 µg/mL (≈ 5.82 µM), respectively.

Take `O=C(Nc1nc(-c2cc(F)cc(F)c2)cs1)c1ccc([N+](=O)[O-])s1` [compound 24, N-(4-(3,5-difluorophenyl)thiazol-2-yl)-5-nitrothiophene-2-carboxamide]: the MIC with E. coli ∆tolC JW5503-1 was 0.3 µg/mL (≈ 0.817 µM); in the assay with E. coli ∆acrB JW0451-2, 0.3 µg/mL (≈ 0.817 µM); in assay [1] (setting [2]), above 20 µg/mL.

Turning to “N-(4-(3-Fluoro-4-methylphenyl)thiazol-2-yl)-5-nitrothiophene-2-carboxamide [compound 13]”, in the assay on E. coli ∆tolC JW5503-1, the “MIC tolC” value was found to be 0.3 µg/mL. For the same compound, in the assay with E. coli ∆acrB JW0451-2, the “MIC acrB” value came to 0.3 µg/mL. The “MIC WT” value in assay [1] was found to be 1.25 µg/mL.
